PubChem BioAssay (NCI)
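Results reflect a 48-hour exposure of cells in 96-well plates to compound at five concentrations. GI50 = concentration required for 50% inhibition of growth. TGI: concentration producing complete growth inhibition.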

What was measured:
Assay in all cases: NCI tumour cell line growth inhibition, 48 h
786-0 renal = test system: 786-0 renal
A498 renal = test system: A498 renal
A549 NSCLC = test system: A549 NSCLC
ACHN renal = test system: ACHN renal
BT-549 breast = test system: BT-549 breast
CAKI-1 renal = test system: CAKI-1 renal
CCRF-CEM leukemia = test system: CCRF-CEM leukemia
COLO 205 colon = test system: COLO 205 colon
DU-145 prostate = test system: DU-145 prostate
EKVX NSCLC = test system: EKVX NSCLC
HCC-2998 colon = test system: HCC-2998 colon
HCT-116 colon = test system: HCT-116 colon
HCT-15 colon = test system: HCT-15 colon
HOP-62 NSCLC = test system: HOP-62 NSCLC
HOP-92 NSCLC = test system: HOP-92 NSCLC
HT29 colon = test system: HT29 colon
IGROV1 ovarian = test system: IGROV1 ovarian
K-562 leukemia = test system: K-562 leukemia
KM12 colon = test system: KM12 colon
LOX IMVI melanoma = test system: LOX IMVI melanoma
MALME-3M melanoma = test system: MALME-3M melanoma
MCF7 breast = test system: MCF7 breast
MDA-MB-231 breast = test system: MDA-MB-231 breast
MOLT-4 leukemia = test system: MOLT-4 leukemia
NCI-H226 lung = test system: NCI-H226 lung
NCI-H23 lung = test system: NCI-H23 lung
NCI-H460 lung = test system: NCI-H460 lung
NCI-H522 lung = test system: NCI-H522 lung
OVCAR-3 ovarian = test system: OVCAR-3 ovarian
OVCAR-4 ovarian = test system: OVCAR-4 ovarian
OVCAR-5 ovarian = test system: OVCAR-5 ovarian
OVCAR-8 ovarian = test system: OVCAR-8 ovarian
PC-3 prostate = test system: PC-3 prostate
RPMI-8226 leukemia = test system: RPMI-8226 leukemia
SF-268 CNS = test system: SF-268 CNS
SF-295 CNS = test system: SF-295 CNS
SK-MEL-2 melanoma = test system: SK-MEL-2 melanoma
SK-MEL-28 melanoma = test system: SK-MEL-28 melanoma
SK-MEL-5 melanoma = test system: SK-MEL-5 melanoma
SK-OV-3 ovarian = test system: SK-OV-3 ovarian
SN12C renal = test system: SN12C renal
SNB-19 CNS = test system: SNB-19 CNS
SNB-75 CNS = test system: SNB-75 CNS
SR leukemia = test system: SR leukemia
SW-620 colon = test system: SW-620 colon
T-47D breast = test system: T-47D breast
TK-10 renal = test system: TK-10 renal
U251 CNS = test system: U251 CNS
UACC-257 melanoma = test system: UACC-257 melanoma
UACC-62 melanoma = test system: UACC-62 melanoma
UO-31 renal = test system: UO-31 renal

Question: Which results are given for `CC(=O)Nc1cccc(Nc2nccc(N[C@@H](C)c3ccccc3)n2)c1`?
Answer: GI50 (786-0 renal): 0.602 µM; TGI (786-0 renal): > 10 µM; TGI (A498 renal): > 10 µM; GI50 (A549 NSCLC): 0.418 µM; TGI (A549 NSCLC): > 10 µM; GI50 (ACHN renal): 0.509 µM; TGI (ACHN renal): > 10 µM; GI50 (BT-549 breast): 0.442 µM; TGI (BT-549 breast): > 10 µM; GI50 (CAKI-1 renal): 0.108 µM; TGI (CAKI-1 renal): > 10 µM; GI50 (CCRF-CEM leukemia): 0.233 µM; TGI (CCRF-CEM leukemia): > 10 µM; GI50 (COLO 205 colon): 0.262 µM; TGI (COLO 205 colon): 1.08 µM; GI50 (DU-145 prostate): 0.383 µM; TGI (DU-145 prostate): > 10 µM; GI50 (EKVX NSCLC): 0.363 µM; TGI (EKVX NSCLC): > 10 µM; GI50 (HCC-2998 colon): 0.423 µM; TGI (HCC-2998 colon): > 10 µM; GI50 (HCT-116 colon): 0.276 µM; TGI (HCT-116 colon): > 10 µM; GI50 (HCT-15 colon): 0.121 µM; TGI (HCT-15 colon): > 10 µM; GI50 (HOP-62 NSCLC): 0.345 µM; TGI (HOP-62 NSCLC): > 10 µM; GI50 (HOP-92 NSCLC): 0.793 µM; TGI (HOP-92 NSCLC): > 10 µM; GI50 (HT29 colon): 0.194 µM; TGI (HT29 colon): > 10 µM; GI50 (IGROV1 ovarian): 0.37 µM; TGI (IGROV1 ovarian): > 10 µM; GI50 (K-562 leukemia): 0.0498 µM; TGI (K-562 leukemia): > 10 µM; GI50 (KM12 colon): 0.104 µM; TGI (KM12 colon): > 10 µM; GI50 (LOX IMVI melanoma): 0.39 µM; TGI (LOX IMVI melanoma): > 10 µM; GI50 (MALME-3M melanoma): 0.102 µM; TGI (MALME-3M melanoma): > 10 µM; GI50 (MCF7 breast): 0.171 µM; TGI (MCF7 breast): > 10 µM; GI50 (MDA-MB-231 breast): 0.416 µM; TGI (MDA-MB-231 breast): > 10 µM; GI50 (MOLT-4 leukemia): 0.327 µM; TGI (MOLT-4 leukemia): > 10 µM; GI50 (NCI-H226 lung): 1 µM; TGI (NCI-H226 lung): > 10 µM; GI50 (NCI-H23 lung): 0.239 µM; TGI (NCI-H23 lung): > 10 µM; GI50 (NCI-H460 lung): 0.246 µM; TGI (NCI-H460 lung): > 10 µM; GI50 (NCI-H522 lung): 0.129 µM; TGI (NCI-H522 lung): 1.24 µM; GI50 (OVCAR-3 ovarian): 0.118 µM; TGI (OVCAR-3 ovarian): > 10 µM; GI50 (OVCAR-4 ovarian): 1.02 µM; TGI (OVCAR-4 ovarian): > 10 µM; GI50 (OVCAR-5 ovarian): 0.409 µM; TGI (OVCAR-5 ovarian): > 10 µM; GI50 (OVCAR-8 ovarian): 0.363 µM; TGI (OVCAR-8 ovarian): > 10 µM; GI50 (PC-3 prostate): 0.319 µM; TGI (PC-3 prostate): > 10 µM; GI50 (RPMI-8226 leukemia): 0.293 µM; TGI (RPMI-8226 leukemia): > 10 µM; GI50 (SF-268 CNS): 0.99 µM; TGI (SF-268 CNS): > 10 µM; GI50 (SF-295 CNS): 0.11 µM; TGI (SF-295 CNS): 0.522 µM; GI50 (SK-MEL-2 melanoma): 0.18 µM; TGI (SK-MEL-2 melanoma): > 10 µM; GI50 (SK-MEL-28 melanoma): 0.703 µM; TGI (SK-MEL-28 melanoma): > 10 µM; GI50 (SK-MEL-5 melanoma): 0.125 µM; TGI (SK-MEL-5 melanoma): 0.481 µM; GI50 (SK-OV-3 ovarian): 0.675 µM; TGI (SK-OV-3 ovarian): > 10 µM; GI50 (SN12C renal): 0.559 µM; TGI (SN12C renal): > 10 µM; GI50 (SNB-19 CNS): 0.335 µM; TGI (SNB-19 CNS): > 10 µM; GI50 (SNB-75 CNS): 0.119 µM; TGI (SNB-75 CNS): > 10 µM; GI50 (SR leukemia): 0.0453 µM; TGI (SR leukemia): > 10 µM; GI50 (SW-620 colon): 0.194 µM; TGI (SW-620 colon): > 10 µM; GI50 (T-47D breast): 0.331 µM; TGI (T-47D breast): > 10 µM; GI50 (TK-10 renal): 0.76 µM; TGI (TK-10 renal): > 10 µM; GI50 (U251 CNS): 0.289 µM; TGI (U251 CNS): > 10 µM; GI50 (UACC-257 melanoma): 0.908 µM; TGI (UACC-257 melanoma): > 10 µM; GI50 (UACC-62 melanoma): 0.126 µM; TGI (UACC-62 melanoma): > 10 µM; GI50 (UO-31 renal): 0.372 µM; TGI (UO-31 renal): > 10 µM
